Test results reported in patent US20230338340A1, “Methods of Treating Cystic Fibrosis” (The Trustees of Dartmouth College, priority 2020, published 2023).
Non-standard residues stand in square brackets, D forms with d. Residues, ends and D or L forms follow the SMILES beside them. Tle = CC(C)(C)[C@H](N)C(=O)O

Legend:
Format in all cases: binding
CALP = target: T1, CALP (Homo sapiens, UniProt Q9HD26); assay: Dose-dependent CALP inhibition by FP competition assay, large-volume format; details: one experimental replicate
T1 construct: Recombinant CAL PDZ was expressed and purified in E. coli as previously described; made in house; host or cells: E. coli
Description: The following compounds of Table 2 were obtained from commercial sources, and evaluated in fluorescence polarization (FP) competition assay.
Specifically, dose-dependent CALP inhibition of compounds of examples 36-41 was assessed by FP competition assays. Experiments were conducted similarly to HTS assays described above but in large-volume format. Briefly, CALP was expressed and purified as previously described (Amacher et al., 2011). A fluorescently labeled peptide, NPG32, was commercially obtained (sequence: F*-[…] where F* denotes a N-terminal fluorescein group coupled via an aminohexanoic acid linker). CALP was dialyzed into FP storage buffer (25 mM Tris pH 8.5, 150 mM NaCl, 0.1 mM TCEP, and 0.02% sodium azide). CALP was diluted into FP buffer (FP storage buffer supplemented with 0.1 mg/mL IgG and 30 μM thesit) containing 31.58 nM NPG32. The protein/reporter solution was aliquoted into 384-well plates with each well containing 19 μL of the mixture. Twelve-point titrations (2-fold serial dilutions) of the test compounds were prepared in 25% DMSO. To each well, 1 μL of compound was added. […] Plates were incubated at room temperature for 30 min before anisotropy was measured. […] Except for Examples 37-38, the reported potency for all compounds was calculated by averaging three experimental replicates.

CAL PDZ = target: T2, CAL PDZ (Homo sapiens, UniProt Q9HD26); assay: CALP fluorescence polarization (FP) competition assay, HTS format with dose-response validation; set-up: Inhibitory activity CALP at 100 μM: unit not given here; details: for IC50: read-out: Inhibitory activity CALP IC50
T2 construct: Recombinant CAL PDZ was expressed and purified in E. coli as previously described; made in house; host or cells: E. coli
Description: (§1) CALP and/or Dab2 inhibition assays were performed in biochemical “mix-and-measure” format in order to evaluate the effects on activation and inhibition of CALP and/or Dab2 by the compounds of the disclosure. Brief assay procedure is provided below. Unless otherwise specified, all of the compounds were obtained from commercial sources.
CALP inhibitors were identified by fluorescence polarization (FP) competition assays in high-throughput screening (HTS) format. Recombinant CAL PDZ was expressed and purified in E. coli as previously described (Amacher et al., Acta Cyst. (2011) F67, 600-603), and dialyzed into FP storage buffer (25 mM Tris pH 8.5, 150 mM NaCl, 0.1 mM TCEP, and 0.02% sodium azide). A fluorescent reporter peptide, NPG32, was purchased commercially with the following sequence: F*-[…] (F* denotes a N-terminal fluorescein group coupled via an aminohexanoic acid linker). Initial single-dose HTS was performed with libraries comprising ˜52,000 compounds (FAST Lab—Novartis Institutes for BioMedical Research). First, 25 nL of 5 mM small-molecule was transferred to 1536-well Grenier plates. 3 μL of 3.708 μM CALP in FP buffer (FP storage buffer supplemented with […]) was added, and plates were incubated for 10 min. Next, 3 μL of 60 nM NPG32 (in FP buffer) was added. Final reaction volumes were 6 μL and contained 1.854 μM CALP, 30 nM NPG32, and 20.83 μM small-molecule. […] Plates were incubated for 30 minutes at room temperature and anisotropy was measured (480 nm excitation wavelength and 535 nm emission wavelength). […] Compounds were validated in triplicate using 8-point dilution series in half-log increments with two orthogonal assays: FRET and TMR-based FP assay. For the FRET assay, a cerulean-CALP fusion protein (Cer-CALP) was expressed and purified as previously described (Zhao et al., 2018). A fluorescent reporter peptide, PRC34, was purchased commercially with the following sequence: TMR*-[…] (TMR* denotes a N-terminal tetramethylrhodamine group coupled via an aminohexanoic acid linker). First, 40 nL of compound was transferred to the plates. 5 μL of 16.632 μM Cer-CALP was added, and plates were incubated for 30 min. Next, 5 μL of 16.632 μM PRC34 was added, and plates were incubated for 30 min. Final reaction volumes were 10 μL and contained 8.316 μM CALP, 8.316 μM […], and variable concentrations of small-molecule. Negative controls contained equivalent amounts of DMSO (0.4%), while positive controls contained 100 μM NPG30 (sequence: […]). Plates were incubated for 30 min, and emission at 475 nm and 575 nm was measured following excitation at 430 nm. TMR FP assays were conducted as described for the FITC-based assay with the following exceptions: TMR was used as the reporter peptide, the final CALP concentration was 11.952 μM, and the positive control used was 100 μM NPG30.

Human-Dab2-DH = target: T3, Human-Dab2-DH (Homo sapiens, UniProt P98082); assay: Dab2 FP competition assay via HTS; details: read-out: Inhibitory activity Dab2 IC50
T3 construct: fused on or other part: N-terminal 10xHis tag with a 3C protease site, cleaved off unless otherwise indicated
T3 sequence (P98082 33-178 limits assumed): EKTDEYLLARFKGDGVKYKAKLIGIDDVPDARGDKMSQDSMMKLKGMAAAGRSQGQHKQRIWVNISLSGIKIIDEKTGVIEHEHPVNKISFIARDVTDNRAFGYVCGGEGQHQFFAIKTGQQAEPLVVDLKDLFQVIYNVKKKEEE
Description: as §1
Dab-2 inhibitors were also identified by FP competition assays via HTS. Human-Dab2-DH, residues 31-191 (Uniprot: P98082), and trDab2-DH (residues 33-178) was subcloned into the pET16b vector via PCR utilizing the restriction enzyme sites of Xhol and BamHI. The construct was designed with a 3C protease cleavage site directly upstream and in-frame with the protein coding sequence. DNA was sequence verified. (0.1 mM) IPTG was used to induce protein expression in E. coli BL21(DE3)RIL cells, after reaching an O.D. of […]. […] Followed by 3C cleavage of the 10×His tag (unless otherwise indicated), and a second nickel affinity column to remove the 3C protease and excess tag. Dab2-DH was dialyzed into FP storage buffer (25 mM Tris pH 8.0, 150 mM NaCl, 0.1 mM TCEP, and 0.02% sodium azide). Fluorescent reporter peptides, TIVR*STA02 (TMR*-[…]) and TMR*STA03 (TMR*-[…]), were purchased commercially with the following sequence where TMR* denotes a N-terminal tetramethylrhodamine group coupled via an aminohexanoic acid linker. An unlabled positive control peptide STA02 ([…]) was also purchased commercially. Inhibitors of Dab2-DH were identified from a variety of sources with various protocols outlined below.
For screens conducted at the Novartis Institutes for BioMedical Research FAST Lab, single-dose HTS assays were performed with libraries comprising ˜52,000 compounds at 20 μM doses. Experiments were conducted as described for screens at the University of Pittsburgh Lab and Drug Discovery Institute, except that Dab2-DH, not trDab2-DH, was used as the protein source.
For screens conducted at the Broad Institute, compound transfers were done using a 384-well pin tool equipped with 100 nL hydrophobic surface coated pins. 100 nL of DMSO (negative control), STA02 (positive control), or library compounds were dispensed into 20 μL of protein (200 nM) and reporter (F*-STA02, 30 nM) mixture with 0.1 mg/ml mouse IgG and 0.5 mM Thesit. Final concentrations in the mixture were DMSO ([…]), STA02 (20 μM), and compounds (18 μM). Plates were incubated for 35-45 minutes before measuring polarization. Compounds were tested in duplicates on two separate plates. Positive and negative controls were included in each individual plate.
For experiments conducted at the University of Pittsburgh Lab and Drug Discovery Institute, single-dose HTS assays were performed with a library containing ˜220,000 compounds. On the day of screening, a master mix of equal parts trDab2-DH (900 nM) and TMP-STA03 (90 nM) was prepared. Compound plates containing assay ready 2 μL aliquots of a 1 mM stock solution in DMSO were thawed, reconstituted in FP buffer to a concentration of 30 μM in 3% DMSO, and five μL transferred to low volume assay plates using a Perkin Elmer MDT. Ten μL of master mix were added by a Microflo bulk liquid dispenser (Biotek, Winooski, VT) and processed as described in the general protocol above. Each plate contained 32 wells of positive (Dab2-DH+probe+DMSO) and negative (Dab2-DH+probe +10 μM STA03) controls. Plates were read at 1.5-h and 4-h on the Envision multilabel reader.

| CALP binding in FP competition (CALP) | Inhibitory activity CALP at 100 μM (CAL PDZ) | IC50 (CAL PDZ) [µM] | IC50 (Human-Dab2-DH) [µM] | Kd (CAL PDZ; unlabeled peptide used as positive control) [µM] | SMILES |
| --- | --- | --- | --- | --- | --- |
| absence of binding | – | – | – | – | O=c1[nH]c2ccc(S(=O)(=O)Nc3cccc4ccccc34)cc2[nH]1 [Example 37, N-(naphthalen-1-yl)-2-oxo-2,3-dihydro-1H-benzo[d]imidazole-5-sulfonamide] |
| absence of binding | – | – | – | – | O=c1[nH]c2ccc(S(=O)(=O)Nc3ccc(O)cc3)cc2[nH]1 [Example 38, N-(4-hydroxyphenyl)-2-oxo-2,3-dihydro-1H-benzo[d]imidazole-5-sulfonamide] |
| – | −94.09 | 10.2 | 3.42 | – | Cc1c(O)c(O)c(O)c(C=O)c1C=O [Example 4, 3,4,5-trihydroxy-6-methylphthalaldehyde] |
| – | −46.33 | 40.5 | 20.6 | – | Oc1ccc(N2CCN(c3ncccn3)CC2)cc1 [Example 5, 4-(4-(pyrimidin-2-yl)piperazin-1-yl)phenol] |
| – | −54.29 | 4.71 | – | – | C/C1=C/CC(O)/C=C\C(C)C(O)C(C)/C=C(\C)C(=O)c2c(O)c(C)cc3c2C(=O)C(Cl)=C(NC(=O)/C=C/C=C/C=C/C(C)C(O)CC1=O)C3=O (stereo not drawn) [Example 15, 2-chloro-13,19,23,28-tetrahydroxy-12,16,22,24,26,29-hexamethyl-13,14,19,22,23,24-hexahydro-1H-3,31-methanobenzo[e][1]azacyclononacosine-1,5,15,27,32(4H,12H,18H)-pentaone] |
| – | – | – | – | ≤ 1 | CC(C)[C@H](NC(=O)[C@H](CCC(N)=O)NC(=O)[C@H](Cc1c[nH]c2ccccc12)NC(=O)[C@H](CCCNC(=N)N)NC(=O)[C@H](CO)NC(=O)[C@H](CC(N)=O)NC(=O)[C@H](C)N)C(=O)N[C@H](C(=O)N[C@@H](CCCNC(=N)N)C(=O)N[C@H](C(=O)O)C(C)(C)C)[C@@H](C)O [NPG35, reference compound] (H-ANSRWQVTR[Tle]-OH) |
| – | −74.42 | 1.24 | – | – | COc1cc(O)c2c(c1)oc(=O)c1c3cc(O)c(O)cc3oc21 [Example 7, 1,8,9-trihydroxy-3-methoxy-6H-benzofuro[3,2-c]chromen-6-one] |
| – | −65.53 | 11.3 | 2.45 | – | O=C(O[C@@H]1Cc2c(O)cc(O)cc2O[C@@H]1c1cc(=O)c(O)c2c(O)c(O)cc([C@H]3Oc4cc(O)cc(O)c4C[C@H]3O)c2c1)c1cc(O)c(O)c(O)c1 [Example 1, (2R,3R)-5,7-dihydroxy-2-(3,4,5-trihydroxy-6-oxo-1-((2R,3R)-3,5,7-trihydroxychroman-2-yl)-6H-benzo[7]annulen-8-yl)chroman-3-yl 3,4,5-trihydroxybenzoate] |
| – | −67.12 | 1.3 | 0.22 | – | CC1COC2C3=C(C(=O)C=CC3=O)C3OC(=O)C4CCC5C1CCC25C43 (stereo not drawn) [Example 2, 6-methyl-2a,2a^1,3,4,4a,5,6,7,8a,12b-decahydro-2H-4a^1,5-ethanofuro[4′,3′,2′:4,10]anthra[9,1-bc]oxepine-2,9,12-trione] |

| SMILES | CALP binding in FP competition (CALP) | Inhibitory activity CALP at 100 μM (CAL PDZ) | IC50 (CAL PDZ) [µM] | IC50 (Human-Dab2-DH) [µM] | Kd (CAL PDZ; unlabeled peptide used as positive control) [µM] |
| --- | --- | --- | --- | --- | --- |
| CC[C@@]1(O)C[C@H](O[C@H]2C[C@H](N(C)C)[C@H](O)[C@H](C)O2)c2c(cc3c(c2O)C(=O)c2c(O)ccc(O)c2C3=O)[C@H]1C(=O)OC [Example 14, methyl (1R,2R,4S)-4-(((2R,4S,5S,6S)-4-(dimethylamino)-5-hydroxy-6-methyltetrahydro-2H-pyran-2-yl)oxy)-2-ethyl-2,5,7,10-tetrahydroxy-6,11-dioxo-1,2,3,4,6,11-hexahydrotetracene-1-carboxylate] | – | −67.06 | 0.73 | – | – |
| O=C1c2c(O)c(Cl)cc3c2[C@@]2(Oc4cc(Cl)c(O)c5c4[C@]3(O2)[C@@H]2O[C@@H]2C5=O)[C@@H]2O[C@H]12 [Example 3, (1aR,1bS,5aS,6aR,6bS,11aS)-3,9-dichloro-4,10-dihydroxy-1a,5a,6a,11a-tetrahydro-5H,11H-1b,6b-epoxyoxireno[2′,3′:2,3]naphtho[1,8-bc]oxireno[2′,3′:2,3]naphtho[1,8-ef]oxepine-5,11-dione] | – | −80.85 | 25.3 | 0.26 | – |
